{
  "source": "patent US20050272636A1",
  "about": "“Treatment and diagnosis of a reproductive disorder by measuring or inhibiting interferon-gamma” (Adelaide Research & Innovation Pty Ltd., priority 2002, published 2005)",
  "key": {"[1]": {"tested_on": "murine uterine epithelial cells", "assay": "Effect of rIFNγ and rTGFβ on GM-CSF production in cultured uterine epithelial cells (Example 2)", "format": "cell-based, mouse", "conditions": "rTGFβ 5 ng/ml; DMEM +penicillin; two experiments", "procedure": "Uterine Epithelial Cell Cultures. Uterine epithelial cells prepared as previously described (Robertson et al., Biol Reprod 46:1069-1079 (1992)) were pooled from 4-6 estrous C57B1/6 or C57B1/6×Balb/c F1 mice and plated in 1 ml culture wells (Nunc, Roskilde, Germany) at 1-2×10^5 cells per ml in 500 μl of Dulbecco's modified Eagles medium containing 10% FCS, […] streptomycin sulphate and […] benzyl penicillin (DMEM +penicillin). After 4 h incubation at 37° C. in 5% CO2 to allow cell adherence, a further 500 μl of DMEM +penicillin, or DMEM +penicillin plus recombinant mouse IFNγ (rIFNγ) and/or recombinant human TGFβ1 (rTGFβ), were added. In some experiments, penicillin-free DMEM (DMEM −penicillin) was used throughout. Culture supernatants were collected and replaced with fresh medium at 16 hours, then collected again 24 hours later, at which time GM-CSF content was determined and adherent cells were quantified as previously described (Robertson et al., Biol Reprod 46:1069-1079 (1992)). All treatments were performed in duplicate or triplicate. rTGFβ and rIFNγ were obtained from R&D Systems, UK.\nGM-CSF bioassay: GM-CSF was assayed using the GM-CSF dependant cell line FD 5/12, essentially as previously described (Robertson et al., Biol Reprod 46:1069-1079 (1992)). Cell proliferation was determined by pulsing with 1 μCi of [^3H]-thymidine per well for the last 6 h of the assay. The minimal detectable amount of GM-CSF was 20 pg/ml. The identity of the bioactivity in uterine epithelial cell cultures was confirmed using a goat polyclonal antibody to murine GM-CSF (DNAX, Palo Alto, Calif.) as previously described (Robertson et al., Biol Reprod 46:1069-1079 (1992)). GM-CSF production is expressed as ng GM-CSF/10^5 cells/24 h. Recombinant mouse GM-CSF was obtained from R&D Systems."}, "[2]": {"tested_on": "IFNγ", "assay": "Inhibitors and antagonists counteracting the GM-CSF-inhibiting actions of IFNγ in uterine epithelial cells (Example 3)", "format": "cell-based, mouse", "conditions": "added in combination with IFNγ; dose-responsive, 5 ng/ml greater effect than 0.5 ng/ml", "procedure": "Several inhibitors and antagonists of IFNγ were tested for their ability to counteract the GM-CSF-inhibiting actions of IFNγ in epithelial cells.\nUterine Epithelial Cell Cultures. Uterine epithelial cells prepared by pancreatin-trypsin digest as previously described (Robertson et al., (1992) Biol. Reprod. 46:1069-1079) were pooled from 4-6 estrous adult C57B1/6×CBA F1 female mice and plated in 1 ml culture wells (Nunc, Roskilde, Germany) at 1-2×10^5 cells per ml in 500 μl of RPMI containing 10% FCS and streptomycin (RPMI-FCS). Penicillin was omitted from culture media except where specified. After 4 h incubation at 37° C. in 5% CO2 to allow cell adherence, a further 500 μl of cytokines or antibodies in RPMI-FCS, or RPMI-FCS alone, were added. Cytokine treatments included recombinant mouse interferon-γ (rmIFNγ; R&D Systems), recombinant human transforming growth factor β1 (rhTGFβ1, R&D Systems), rhTGFβ2 (R&D Systems), rhTGFβ3 (OSI Pharmaceuticals). Antibody treatments included goat anti-mouse IFNγ receptor 1 (αIFNγR; R&D Systems AF1026) and hamster anti-mouse IFNγ (αIFNγ; R&D Systems MAB4851). Culture supernatants were collected and replaced with fresh complete RPMI-FCS alone at 16 hours, then collected again 24 hours later, at which time adherent cells were quantified as previously described (Robertson et al., (1992) Biol. Reprod. 46:1069-1079). The GM-CSF content of 24 h supernatants was determined by GM-CSF bioassay or immunoassay. All treatments were performed in duplicate or triplicate.\nGM-CSF bioassay and immunoassay: Bioactive GM-CSF was assayed using the GM-CSF dependant cell line FD 5/12, essentially as previously described (Robertson et al., (1992) Biol. Reprod. 46:1069-1079). Cell proliferation was determined by the addition of 1 μCi of [^3H]-thymidine per well for the last 6 h of the assay. The minimal detectable amount of GM-CSF was […] The identity of the bioactivity in uterine epithelial cell cultures was confirmed using a goat polyclonal antibody to murine GM-CSF kindly provided by J. Schreurs (DNAX, Palo Alto, Calif.) as previously described (Robertson et al., (1992) Biol. Reprod. 46:1069-1079). GM-CSF immunoactivity was in some experiments measured by commercial mouse GM-CSF specific ELISA (R & D Systems) according to the manufacturer's instructions."}, "[3]": {"tested_on": "human cervical epithelial cells", "assay": "Effect of IFN-γ and TGFβ on GM-CSF synthesis in human cervical epithelial cells (Example 4)", "format": "cell-based", "conditions": "0.5, 5.0 or 50 ng/ml TGFβ1 + 5.0 ng/ml IFN-γ; dose-responsive; 12 h", "procedure": "Human cervical epithelial cells were cultured using a modification of the technique described by Rheinwald et al., Cell 1975 3: 33143 (1975). Cervical biopsies were obtained from consenting women undergoing hysterectomy for non-malignant gynaecological indications. All the women were pre-menopausal, but no distinction was made regarding the stage of their menstrual cycle at the time of surgery. The cervical biopsies were placed in ice-cold Hank's balanced salt solution for transport to the laboratory, washed twice in antibiotic-containing medium, and incubated overnight at 4° C. in Dulbecco's modified Eagle's medium (DMEM) containing 5 U dispase (Boehringer Mannheim). Large sheets of keratinocytes were mechanically stripped from the biopsy using sterile forceps after a subsequent 1 h incubation at room temperature. Disaggregation into single cells was facilitated by incubation in DMEM/0.25% trypsin/0.05% collagenase for 30 minutes at 37° C., and repeated aspiration using a needle and syringe. […]\nSupernatant was collected 12 hours later and assayed for GM-CSF activity using a commercial human GM-CSF specific ELISA (R & D Systems) according to the manufacturer's instructions. The GM-CSF content of post-treatment supernatants were normalised to the GM-CSF content of corresponding 12 h (baseline) supernatants and expressed as a percentage of control values."}},
  "data": [
    {"substance": "rhTGFβ1: recombinant human transforming growth factor β1 (R&D Systems)", "values": [
      {"measurement": "increase in GM-CSF production", "setting": "[1]", "result": "approximately 6 fold"},
      {"measurement": "effect of TGFβ isoform on the inhibitory effect of IFNγ on GM-CSF synthesis", "setting": "[2]", "result": "counteracted the inhibitory effect"},
      {"measurement": "effect of TGFβ on the inhibitory effect of IFN-γ on GM-CSF synthesis", "setting": "[3]", "result": "counteract the inhibitory effect"}
    ]}
  ]
}
